Where “and” joins values, the source holds several entries; their conditions need not be identical. Equal values may be shown once.
Experiments:
D(2) dopamine receptor [1] = target: D(2) dopamine receptor (Rattus norvegicus, UniProt P61169)
D(2) dopamine receptor [2] = target: D(2) dopamine receptor (Oryctolagus cuniculus, UniProt G1T1Q0)
D(2) dopamine receptor (Oryctolagus cuniculus, UniProt G1T1Q0), sequence (G1T1Q0 whole entry): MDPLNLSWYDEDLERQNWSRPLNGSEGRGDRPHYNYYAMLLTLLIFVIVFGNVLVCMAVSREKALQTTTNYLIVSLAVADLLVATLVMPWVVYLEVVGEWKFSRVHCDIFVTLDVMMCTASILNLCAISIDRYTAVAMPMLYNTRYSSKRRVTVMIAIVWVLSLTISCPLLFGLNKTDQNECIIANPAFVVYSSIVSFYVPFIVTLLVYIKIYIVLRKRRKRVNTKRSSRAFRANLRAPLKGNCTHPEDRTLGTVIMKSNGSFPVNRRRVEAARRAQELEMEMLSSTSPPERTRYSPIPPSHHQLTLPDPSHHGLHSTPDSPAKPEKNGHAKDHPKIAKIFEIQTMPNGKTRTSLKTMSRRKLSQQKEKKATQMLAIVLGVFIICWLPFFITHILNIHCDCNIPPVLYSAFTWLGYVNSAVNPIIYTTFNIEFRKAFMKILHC

D(2) dopamine receptor (Rattus norvegicus, UniProt P61169), sequence (P61169 whole entry): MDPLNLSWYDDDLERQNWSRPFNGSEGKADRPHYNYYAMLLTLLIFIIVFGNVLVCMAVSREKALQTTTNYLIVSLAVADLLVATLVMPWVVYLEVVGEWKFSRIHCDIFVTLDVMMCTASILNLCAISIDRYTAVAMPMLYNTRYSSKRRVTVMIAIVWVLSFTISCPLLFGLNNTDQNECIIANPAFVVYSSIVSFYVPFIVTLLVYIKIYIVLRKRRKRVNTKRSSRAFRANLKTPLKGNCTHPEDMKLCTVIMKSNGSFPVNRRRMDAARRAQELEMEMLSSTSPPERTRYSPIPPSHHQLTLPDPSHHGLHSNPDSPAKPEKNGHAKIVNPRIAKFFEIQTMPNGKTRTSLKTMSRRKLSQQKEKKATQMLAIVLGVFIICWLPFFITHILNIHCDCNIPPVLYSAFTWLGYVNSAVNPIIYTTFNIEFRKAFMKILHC

SMILES	Ki (D(2) dopamine receptor [1])	Ki (D(2) dopamine receptor [2])
CCCN(CCC)CCc1ccc(O)c(O)c1	130 nM	37 nM and 85 nM
O=c1[nH]c2ccccc2n1CCCN1CCC(n2c(=O)[nH]c3cc(Cl)ccc32)CC1		3.3 nM and 4.9 nM
NCCc1ccc(O)c(O)c1		250 nM and 200 nM
O=C(c1ccc(F)cc1)C1CCN(CCn2c(=O)[nH]c3ccccc3c2=O)CC1 [3-(2-{4-[(4-fluorophenyl)carbonyl]piperidin-1-yl}ethyl)-1,2,3,4-tetrahydroquinazoline-2,4-dione]	720 nM and 580 nM	880 nM
Nc1nc2c(ncn2[C@@H]2O[C@H](COP(=O)(O)OP(=O)(O)OP(=O)(O)O)[C@@H](O)[C@H]2O)c(=O)[nH]1 [Dopamine+ (GTP+)]	1300 nM and 2900 nM	
Cc1ccc(N(CC2=NCCN2)c2cccc(O)c2)cc1 [SMR000059054]	1500 nM and 750 nM	1200 nM

Source: BindingDB's records for PubMed 6655559 (University of California, 1983)
